Experimental data as given in PubChem BioAssay AID2060616 (Molecular Pharmacology Branch, DTP, NCI, 2025).

System: 377384-186-R-J1-PDC complex spheroid viability
Assay: Anticancer human tumor 377384-186-R-J1-PDC patient-derived pancreatic carcinoma cell line growth inhibition [CLK]
Conditions: for IC50: curve of first compound; for viability, T/C: stronger effect = lower value
Outline: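 Patient-derived tumor cells grown as complex spheroids with HUVEC endothelial cells and mesenchymal stem cells, treated with drug combinations. Concentrations descend in half-log steps from near clinical Cmax, or from 10 microM if Cmax unknown.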

[1] = second compound 0.0316 µM, first compound 0.0316 µM
[2] = second compound 0.0316 µM, first compound 0.1 µM
[3] = second compound 0.0316 µM, first compound 0.316 µM
[4] = second compound 0.0316 µM, first compound 1 µM
[5] = second compound 0.0316 µM, first compound 3.16 µM
[6] = second compound 0.0316 µM, first compound 10 µM
[7] = second compound 0.1 µM, first compound 0.0316 µM
[8] = second compound 0.1 µM, first compound 0.1 µM
[9] = second compound 0.1 µM, first compound 0.316 µM
[10] = second compound 0.1 µM, first compound 1 µM
[11] = second compound 0.1 µM, first compound 3.16 µM
[12] = second compound 0.1 µM, first compound 10 µM
[13] = second compound 0.316 µM, first compound 0.0316 µM
[14] = second compound 0.316 µM, first compound 0.1 µM
[15] = second compound 0.316 µM, first compound 0.316 µM
[16] = second compound 0.316 µM, first compound 1 µM
[17] = second compound 0.316 µM, first compound 3.16 µM
[18] = second compound 0.316 µM, first compound 10 µM
[19] = second compound 1 µM, first compound 0.0316 µM
[20] = second compound 1 µM, first compound 0.1 µM
[21] = second compound 1 µM, first compound 0.316 µM
[22] = second compound 1 µM, first compound 1 µM
[23] = second compound 1 µM, first compound 3.16 µM
[24] = second compound 1 µM, first compound 10 µM
[25] = second compound 3.16 µM, first compound 0.0316 µM
[26] = second compound 3.16 µM, first compound 0.1 µM
[27] = second compound 3.16 µM, first compound 0.316 µM
[28] = second compound 3.16 µM, first compound 1 µM
[29] = second compound 3.16 µM, first compound 3.16 µM
[30] = second compound 3.16 µM, first compound 10 µM
[31] = second compound 10 µM, first compound 0.0316 µM
[32] = second compound 10 µM, first compound 0.1 µM
[33] = second compound 10 µM, first compound 0.316 µM
[34] = second compound 10 µM, first compound 1 µM
[35] = second compound 10 µM, first compound 3.16 µM
[36] = second compound 10 µM, first compound 10 µM
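Further: spheroids exposed to agents for 7 days before reading.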
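Wherever viability, T/C is given: luminescence signal used as a stand-in for viable cells.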

COc1ccc([C@@H](O)c2cc(-c3ncnc4cc(N5CCOCC5)ccc34)c(F)cc2Cl)nn1 + CN1CCN(c2cc(C(=O)Nc3cc4cc(-c5cnn(C)c5)ccc4cn3)ccn2)CC1
IC50 (second compound 0.0316 µM): 6.04 µM | IC50 (second compound 0.1 µM): 4.23 µM | IC50 (second compound 0.316 µM): < 0.0316 µM | IC50 (second compound 1 µM): < 0.0316 µM | IC50 (second compound 3.16 µM): < 0.0316 µM | IC50 (second compound 10 µM): < 0.0316 µM | viability, T/C [1]: 119% | viability, T/C [2]: 111% | viability, T/C [3]: 88.8% | viability, T/C [4]: 78.2% | viability, T/C [5]: 59.3% | viability, T/C [6]: 42.5% | viability, T/C [7]: 114% | viability, T/C [8]: 99.9% | viability, T/C [9]: 73.7% | viability, T/C [10]: 70.6% | viability, T/C [11]: 57.6% | viability, T/C [12]: 37.2% | viability, T/C [13]: 18.3% | viability, T/C [14]: 22.8% | viability, T/C [15]: 16.8% | viability, T/C [16]: 18.1% | viability, T/C [17]: 18.5% | viability, T/C [18]: 16% | viability, T/C [19]: 0.76% | viability, T/C [20]: 0.63% | viability, T/C [21]: 0.7% | viability, T/C [22]: 1.13% | viability, T/C [23]: 1.12% | viability, T/C [24]: 1.02% | viability, T/C [25]: 0.38% | viability, T/C [26]: 0.32% | viability, T/C [27]: 1.16% | viability, T/C [28]: 0.36% | viability, T/C [29]: 0.35% | viability, T/C [30]: 0.98% | viability, T/C [31]: 0.49% | viability, T/C [32]: 0.35% | viability, T/C [33]: 0.33% | viability, T/C [34]: 0.39% | viability, T/C [35]: 1.26% | viability, T/C [36]: 0.36%

C=CC(=O)N1CCN(c2nc(=O)n(-c3c(C)ccnc3C(C)C)c3nc(-c4c(O)cccc4F)c(F)cc23)C(C)C1 (centres undefined) + CNC(=O)c1ccc(Nc2nc(OC3CCCC3)c3c(-c4ccc5nc(C)oc5c4)c[nH]c3n2)c(OC)c1
IC50 (second compound 0.0316 µM): > 10 µM | IC50 (second compound 0.1 µM): 2.76 µM | IC50 (second compound 0.316 µM): < 0.0316 µM | IC50 (second compound 1 µM): < 0.0316 µM | IC50 (second compound 3.16 µM): < 0.0316 µM | IC50 (second compound 10 µM): < 0.0316 µM | viability, T/C [1]: 108% | viability, T/C [2]: 111% | viability, T/C [3]: 99.1% | viability, T/C [4]: 111% | viability, T/C [5]: 116% | viability, T/C [6]: 91.7% | viability, T/C [7]: 62.5% | viability, T/C [8]: 64.7% | viability, T/C [9]: 56.4% | viability, T/C [10]: 68.6% | viability, T/C [11]: 48.3% | viability, T/C [12]: 36% | viability, T/C [13]: 22.9% | viability, T/C [14]: 18.9% | viability, T/C [15]: 20.5% | viability, T/C [16]: 25% | viability, T/C [17]: 24% | viability, T/C [18]: 21.4% | viability, T/C [19]: 20.2% | viability, T/C [20]: 20.1% | viability, T/C [21]: 18.3% | viability, T/C [22]: 21.3% | viability, T/C [23]: 23.1% | viability, T/C [24]: 21.5% | viability, T/C [25]: 23.6% | viability, T/C [26]: 23.5% | viability, T/C [27]: 22% | viability, T/C [28]: 24.5% | viability, T/C [29]: 26.1% | viability, T/C [30]: 23.1% | viability, T/C [31]: 18.7% | viability, T/C [32]: 18.3% | viability, T/C [33]: 18.4% | viability, T/C [34]: 20.3% | viability, T/C [35]: 23.8% | viability, T/C [36]: 19.7%
